Measurements taken from PubChem BioAssay AID256 (DTP/NCI, 2004).
Values joined by “and” are separate entries in the source; they are usually repeats but may differ in a detail not shown here. Identical values can stand only once. Toxic doses and inconclusive results are not listed. The calls were made as follows: active = survival T/C of 150% or more; inactive = T/C below 125% in these data.

System: CD2F1 mice, L1210 leukemia ip, survival T/C
Experiment: NCI In Vivo Anticancer Drug Screen. Data for tumor model L1210 Leukemia (intraperitoneal) in CD2F1 (CDF1) mice
Details: higher = longer survival
How it was run: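 Read-out first: treated-group measurement over vehicle-control measurement, expressed as a ratio. Animals bore a transplanted tumor line and were dosed with compound or vehicle.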

[1] = endpoint: mean survival time, dose: 100.0 mg/kg/injection, schedule: Q04DX003 (ip), vehicle: saline
[2] = endpoint: mean survival time, dose: 200.0 mg/kg/injection, schedule: Q04DX003 (ip), vehicle: saline
[3] = endpoint: mean survival time, dose: 400.0 mg/kg/injection, schedule: Q04DX003 (ip), vehicle: saline
[4] = endpoint: mean survival time, dose: 100.0 mg/kg/injection, schedule: Q01DX001 (ip), vehicle: saline
[5] = endpoint: mean survival time, dose: 200.0 mg/kg/injection, schedule: Q01DX001 (ip), vehicle: saline
[6] = endpoint: mean survival time, dose: 400.0 mg/kg/injection, schedule: Q01DX001 (ip), vehicle: saline

Measured: T/C

Cn1c2cc(Cl)c(Cl)cc2nc2cc3c(cc21)c(Cl)c(=O)c1cc2cc(Cl)c(Cl)cc2cc13
inactive: [1] 95 % of control | [2] 95 % of control | [3] 100 % of control

CSc1ccc(OC(=O)Nc2ccc(C)cc2C)cc1C
inactive: endpoint: mean survival time, dose: 12.5 mg/kg/injection, schedule: Q01DX009 (ip), vehicle: saline with Tween-80 95 % of control | endpoint: mean survival time, dose: 25.0 mg/kg/injection, schedule: Q01DX009 (ip), vehicle: saline with Tween-80 91 % of control | endpoint: mean survival time, dose: 50.0 mg/kg/injection, schedule: Q01DX009 (ip), vehicle: saline with Tween-80 87 % of control and 89 % of control | endpoint: mean survival time, dose: 200.0 mg/kg/injection, schedule: Q01DX009 (ip), vehicle: saline with Tween-80 93 % of control

OC1CC2CCC(C1)N2CCCN1c2ccccc2Sc2ccc(Cl)cc21 (centres undefined)
inactive: endpoint: mean survival time, dose: 7.5 mg/kg/injection, schedule: Q01DX009 (ip), vehicle: saline 91 % of control | endpoint: mean survival time, dose: 15.0 mg/kg/injection, schedule: Q01DX009 (ip), vehicle: saline 98 % of control | endpoint: mean survival time, dose: 18.0 mg/kg/injection, schedule: Q04DX003 (ip), vehicle: saline with Tween-80 99 % of control | endpoint: mean survival time, dose: 27.0 mg/kg/injection, schedule: Q04DX003 (ip), vehicle: saline with Tween-80 94 % of control | endpoint: mean survival time, dose: 30.0 mg/kg/injection, schedule: Q01DX009 (ip), vehicle: saline 109 % of control | endpoint: mean survival time, dose: 40.0 mg/kg/injection, schedule: Q04DX003 (ip), vehicle: saline with Tween-80 103 % of control | endpoint: mean survival time, dose: 60.0 mg/kg/injection, schedule: Q04DX003 (ip), vehicle: saline with Tween-80 123 % of control

CCCc1cc(=O)n(CCCc2ccccc2)c(=O)n1CCCc1ccccc1
inactive: endpoint: mean survival time, dose: 100.0 mg/kg/injection, schedule: Q01DX001 (ip), vehicle: Klucel (hydroxypropylcellulose) (HPC) 103 % of control | endpoint: mean survival time, dose: 200.0 mg/kg/injection, schedule: Q01DX001 (ip), vehicle: Klucel (hydroxypropylcellulose) (HPC) 97 % of control | endpoint: mean survival time, dose: 400.0 mg/kg/injection, schedule: Q01DX001 (ip), vehicle: Klucel (hydroxypropylcellulose) (HPC) 90 % of control

COc1ccccc1C1C=CCCCC1 (centres undefined)
inactive: [1] 95 % of control | [2] 93 % of control | [3] 96 % of control

CC(=O)c1ccc(O)cc1O
inactive: [4] 102 % of control and 98 % of control | [5] 102 % of control and 98 % of control | [6] 107 % of control and 104 % of control

O=c1c2nccnc2nc2n1CCCCC2
inactive: endpoint: mean survival time, dose: 75.0 mg/kg/injection, schedule: Q01DX001 (ip), vehicle: saline 100 % of control | endpoint: mean survival time, dose: 150.0 mg/kg/injection, schedule: Q01DX001 (ip), vehicle: saline 103 % of control | endpoint: mean survival time, dose: 300.0 mg/kg/injection, schedule: Q01DX001 (ip), vehicle: saline 103 % of control

O=C1c2ccccc2C(=O)N1OCCCN1C(=O)c2ccccc2S1(=O)=O
inactive: [4] 96 % of control | [5] 100 % of control | [6] 100 % of control

CN(C)c1ccc([N+](=O)[O-])cc1[N+](=O)[O-]
inactive: endpoint: mean survival time, dose: 62.5 mg/kg/injection, schedule: Q01DX001 (ip), vehicle: Klucel (hydroxypropylcellulose) (HPC) 94 % of control | endpoint: mean survival time, dose: 125.0 mg/kg/injection, schedule: Q01DX001 (ip), vehicle: Klucel (hydroxypropylcellulose) (HPC) 94 % of control | endpoint: mean survival time, dose: 250.0 mg/kg/injection, schedule: Q01DX001 (ip), vehicle: Klucel (hydroxypropylcellulose) (HPC) 92 % of control | endpoint: mean survival time, dose: 500.0 mg/kg/injection, schedule: Q01DX001 (ip), vehicle: Klucel (hydroxypropylcellulose) (HPC) 102 % of control

COc1cc(C2=NCCc3cc4c(cc32)OCO4)cc(OC)c1OC
inactive: endpoint: median survival time, dose: 6.25 mg/kg/injection, schedule: Q01DX009 (ip), vehicle: saline + alcohol 106 % of control | endpoint: median survival time, dose: 12.5 mg/kg/injection, schedule: Q01DX009 (ip), vehicle: saline + alcohol 105 % of control | endpoint: median survival time, dose: 12.5 mg/kg/injection, schedule: Q01DX009 (ip), vehicle: saline 97 % of control and 102 % of control | endpoint: median survival time, dose: 25.0 mg/kg/injection, schedule: Q01DX009 (ip), vehicle: saline + alcohol 107 % of control | endpoint: median survival time, dose: 25.0 mg/kg/injection, schedule: Q01DX009 (ip), vehicle: saline 93 % of control and 104 % of control | endpoint: median survival time, dose: 50.0 mg/kg/injection, schedule: Q01DX009 (ip), vehicle: saline + alcohol 106 % of control | endpoint: median survival time, dose: 50.0 mg/kg/injection, schedule: Q01DX009 (ip), vehicle: saline 105 % of control | endpoint: median survival time, dose: 100.0 mg/kg/injection, schedule: Q01DX009 (ip), vehicle: saline + alcohol 109 % of control | endpoint: median survival time, dose: 100.0 mg/kg/injection, schedule: Q01DX009 (ip), vehicle: saline 105 % of control

CCOC(=O)Nc1cc(NC(C)CCCN(CC)CC)c2ncc(-c3ccccc3)nc2n1 (centres undefined) (tested in a mixture with another compound)
inactive: endpoint: mean survival time, dose: 25.0 mg/kg/injection, schedule: Q01DX009 (ip), vehicle: saline 89 % of control | endpoint: mean survival time, dose: 25.0 mg/kg/injection, schedule: Q04DX003 (ip), vehicle: saline 98 % of control | endpoint: mean survival time, dose: 50.0 mg/kg/injection, schedule: Q01DX009 (ip), vehicle: saline 94 % of control | endpoint: mean survival time, dose: 50.0 mg/kg/injection, schedule: Q04DX003 (ip), vehicle: saline 98 % of control | endpoint: mean survival time, dose: 100.0 mg/kg/injection, schedule: Q01DX009 (ip), vehicle: saline 95 % of control | [1] 108 % of control

Cc1ccc(N/N=C/C(=O)O)cc1
inactive: endpoint: mean survival time, dose: 12.5 mg/kg/injection, schedule: Q04DX003 (ip), vehicle: other 101 % of control | endpoint: mean survival time, dose: 25.0 mg/kg/injection, schedule: Q04DX003 (ip), vehicle: other 101 % of control | endpoint: mean survival time, dose: 50.0 mg/kg/injection, schedule: Q04DX003 (ip), vehicle: other 97 % of control | endpoint: mean survival time, dose: 100.0 mg/kg/injection, schedule: Q04DX003 (ip), vehicle: other 95 % of control | endpoint: mean survival time, dose: 400.0 mg/kg/injection, schedule: Q04DX003 (ip), vehicle: other 94 % of control

CC(O)CN=C(N)C(N)=NCC(C)O (centres undefined)
inactive: endpoint: mean survival time, dose: 12.5 mg/kg/injection, schedule: Q04DX002 (ip), vehicle: saline with Tween-80 108 % of control | endpoint: mean survival time, dose: 25.0 mg/kg/injection, schedule: Q04DX002 (ip), vehicle: saline with Tween-80 101 % of control | endpoint: mean survival time, dose: 50.0 mg/kg/injection, schedule: Q04DX002 (ip), vehicle: saline with Tween-80 97 % of control

O=C1C(Cl)=C(Cl)C(=O)c2ccccc21
inactive: endpoint: mean survival time, dose: 5.0 mg/kg/injection, schedule: Q04DX003 (ip), vehicle: saline with Tween-80 98 % of control | endpoint: mean survival time, dose: 10.0 mg/kg/injection, schedule: Q04DX003 (ip), vehicle: saline with Tween-80 93 % of control | endpoint: mean survival time, dose: 20.0 mg/kg/injection, schedule: Q04DX003 (ip), vehicle: saline with Tween-80 101 % of control

CCCC[N-]CC(O)C[NH-].O=C(O)CC(=O)O.[Pt+2] (centres undefined)
inactive: endpoint: median survival time, dose: 10.0 mg/kg/injection, schedule: Q04DX003 (ip), vehicle: water 105 % of control | endpoint: median survival time, dose: 20.0 mg/kg/injection, schedule: Q04DX003 (ip), vehicle: water 103 % of control | endpoint: median survival time, dose: 40.0 mg/kg/injection, schedule: Q04DX003 (ip), vehicle: water 105 % of control | endpoint: median survival time, dose: 50.5 mg/kg/injection, schedule: Q04DX003 (ip), vehicle: water 103 % of control | endpoint: median survival time, dose: 80.0 mg/kg/injection, schedule: Q04DX003 (ip), vehicle: water 97 % of control | endpoint: median survival time, dose: 101.0 mg/kg/injection, schedule: Q04DX003 (ip), vehicle: water 103 % of control | endpoint: median survival time, dose: 202.0 mg/kg/injection, schedule: Q04DX003 (ip), vehicle: water 107 % of control

O=Cc1ccc(O)c(Cl)c1
inactive: endpoint: mean survival time, dose: 100.0 mg/kg/injection, schedule: Q01DX001 (ip), vehicle: saline with Tween-80 96 % of control | endpoint: mean survival time, dose: 200.0 mg/kg/injection, schedule: Q01DX001 (ip), vehicle: saline with Tween-80 104 % of control | endpoint: mean survival time, dose: 400.0 mg/kg/injection, schedule: Q01DX001 (ip), vehicle: saline with Tween-80 93 % of control

Cc1ccc(C(=O)N/N=C/C(=O)O)cc1
inactive: endpoint: mean survival time, dose: 25.0 mg/kg/injection, schedule: Q01DX009 (ip), vehicle: water 102 % of control | endpoint: mean survival time, dose: 50.0 mg/kg/injection, schedule: Q01DX009 (ip), vehicle: water 95 % of control | endpoint: mean survival time, dose: 100.0 mg/kg/injection, schedule: Q01DX009 (ip), vehicle: water 102 % of control | endpoint: mean survival time, dose: 200.0 mg/kg/injection, schedule: Q01DX009 (ip), vehicle: water 95 % of control

COc1ccc(NC(=O)NCc2cccc(Cl)c2)cc1
inactive: endpoint: mean survival time, dose: 50.0 mg/kg/injection, schedule: Q01DX009 (ip), vehicle: Klucel (hydroxypropylcellulose) (HPC) 102 % of control | endpoint: mean survival time, dose: 100.0 mg/kg/injection, schedule: Q01DX009 (ip), vehicle: Klucel (hydroxypropylcellulose) (HPC) 114 % of control | endpoint: mean survival time, dose: 200.0 mg/kg/injection, schedule: Q01DX009 (ip), vehicle: Klucel (hydroxypropylcellulose) (HPC) 117 % of control

C=C1CC(=O)N(c2ccc(OC)cc2)C1=O
inactive: endpoint: mean survival time, dose: 25.0 mg/kg/injection, schedule: Q04DX003 (ip), vehicle: saline with Tween-80 100 % of control | endpoint: mean survival time, dose: 50.0 mg/kg/injection, schedule: Q04DX003 (ip), vehicle: saline with Tween-80 107 % of control | endpoint: mean survival time, dose: 100.0 mg/kg/injection, schedule: Q04DX003 (ip), vehicle: saline with Tween-80 104 % of control
